This passage reports T/C results from PubChem BioAssay AID248 (DTP/NCI, 2004).

The test system of this test is L1210 leukemia ip in BDF1 mice, survival T/C. As to the kind of experiment: NCI In Vivo Anticancer Drug Screen. Data for tumor model L1210 Leukemia (intraperitoneal) in B6D2F1 (BDF1) mice. Conditions: endpoint: mean survival time, higher = longer survival. The method, boiled down:
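Tumor was transplanted into mice, which were then dosed with test compound or vehicle alone. Survival was recorded for each group, and the treated figure was expressed relative to the control figure.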

[1] abbreviates: dose: 10.0 mg/kg/injection, schedule: Q01DX009 (ip), vehicle: saline.
The mark [2] stands for this setting: dose: 100.0 mg/kg/injection, schedule: Q01DX009 (ip), vehicle: Klucel (hydroxypropylcellulose) (HPC).
Where [3] appears, read: dose: 200.0 mg/kg/injection, schedule: Q01DX009 (ip), vehicle: Klucel (hydroxypropylcellulose) (HPC).
[4] abbreviates: dose: 400.0 mg/kg/injection, schedule: Q01DX009 (ip), vehicle: Klucel (hydroxypropylcellulose) (HPC).
[5] abbreviates: dose: 100.0 mg/kg/injection, schedule: Q01DX001 (ip), vehicle: Klucel (hydroxypropylcellulose) (HPC).
Setting [6] is: dose: 200.0 mg/kg/injection, schedule: Q01DX001 (ip), vehicle: Klucel (hydroxypropylcellulose) (HPC).
[7] abbreviates: dose: 400.0 mg/kg/injection, schedule: Q01DX001 (ip), vehicle: Klucel (hydroxypropylcellulose) (HPC).

Inconclusive results and toxic doses are left out.

Take `C(=N\NC1=NCCN1)/c1ccccc1`: the T/C is 101 % of control (dose: 2.5 mg/kg/injection, schedule: Q01DX009 (ip), vehicle: saline); 97 % of control (dose: 5.0 mg/kg/injection, schedule: Q01DX009 (ip), vehicle: saline); 97 % of control (dose: 5.0 mg/kg/injection, schedule: Q04DX003 (ip), vehicle: saline); 105 % of control (dose: 10.0 mg/kg/injection, schedule: Q01DX001 (ip), vehicle: saline); 93 % of control under setting [1]; 94 % of control (dose: 10.0 mg/kg/injection, schedule: Q04DX003 (ip), vehicle: saline). In addition, the T/C is 104 % of control (dose: 20.0 mg/kg/injection, schedule: Q01DX001 (ip), vehicle: saline) and 97 % of control (dose: 20.0 mg/kg/injection, schedule: Q04DX003 (ip), vehicle: saline).

As to `O=S(=O)(c1ccc(I)cc1)c1ccc(I)cc1`, the T/C runs as follows: (dose: 50.0 mg/kg/injection, schedule: Q01DX001 (ip), vehicle: carboxymethylcellulose (CMC)) 104 % of control; (dose: 100.0 mg/kg/injection, schedule: Q01DX001 (ip), vehicle: carboxymethylcellulose (CMC)) 95 % of control; (dose: 200.0 mg/kg/injection, schedule: Q01DX001 (ip), vehicle: carboxymethylcellulose (CMC)) 88 % of control; (dose: 400.0 mg/kg/injection, schedule: Q01DX001 (ip), vehicle: carboxymethylcellulose (CMC)) 95 % of control.

In the case of `CCCCC(NC(=O)CNC(=O)OCc1ccccc1)C(=O)OC` (configuration not stated), the T/C is 108 % of control (dose: 100.0 mg/kg/injection, schedule: Q04DX003 (ip), vehicle: saline with Tween-80); 100 % of control (dose: 200.0 mg/kg/injection, schedule: Q04DX003 (ip), vehicle: saline with Tween-80); 93 % of control (dose: 400.0 mg/kg/injection, schedule: Q04DX003 (ip), vehicle: saline with Tween-80).

On to `CN(C)C(=O)Nc1ccc(Cc2ccc(NC(=O)N(C)C)cc2)cc1`, for which the T/C is, setting by setting: under setting [2], 96 % of control; under setting [3], 92 % of control; under setting [4], 96 % of control.

With `O=CNc1nc(Cl)c2ncn(C3OC(COCc4ccccc4)C(OCc4ccccc4)C3OCc3ccccc3)c2n1` (configuration not stated), the T/C (dose: 12.5 mg/kg/injection, schedule: Q01DX005 (ip), vehicle: saline) is 104 % of control; the T/C (dose: 25.0 mg/kg/injection, schedule: Q01DX005 (ip), vehicle: saline) is 98 % of control; the T/C (dose: 50.0 mg/kg/injection, schedule: Q01DX005 (ip), vehicle: saline) is 102 % of control; the T/C (dose: 100.0 mg/kg/injection, schedule: Q01DX005 (ip), vehicle: saline) is 113 % of control; the T/C (dose: 200.0 mg/kg/injection, schedule: Q01DX005 (ip), vehicle: saline) was 106 % of control.

Take `O=C(O)c1cccc(CBr)c1CBr`: the T/C (dose: 6.25 mg/kg/injection, schedule: Q01DX001 (ip), vehicle: saline with Tween-80) was 97 % of control; the T/C (dose: 6.25 mg/kg/injection, schedule: Q01DX009 (ip), vehicle: saline with Tween-80) was 93 % of control; the T/C (dose: 12.5 mg/kg/injection, schedule: Q01DX001 (ip), vehicle: saline with Tween-80) was 96 % of control; the T/C (dose: 12.5 mg/kg/injection, schedule: Q01DX009 (ip), vehicle: saline with Tween-80) was 96 % of control; the T/C (dose: 25.0 mg/kg/injection, schedule: Q01DX001 (ip), vehicle: saline with Tween-80) was 100 % of control.

Take `O=C(Nc1cc2ccccc2cc1C(=O)O)Nc1cccc2ccccc12`: the T/C was 97 % of control under setting [2], 101 % of control under setting [3] and 100 % of control under setting [4].

Take `CCCCCCCCCC(C)CC1CCCCC1` (configuration not stated): the T/C runs as follows: (dose: 100.0 mg/kg/injection, schedule: Q01DX001 (ip), vehicle: saline with Tween-80) 96 % of control; (dose: 200.0 mg/kg/injection, schedule: Q01DX001 (ip), vehicle: saline with Tween-80) 96 % of control.

For `Clc1ccc(CSC2=NCCN2)cc1`, the T/C (dose: 12.5 mg/kg/injection, schedule: Q04DX003 (ip), vehicle: saline) was 94 % of control; the T/C (dose: 25.0 mg/kg/injection, schedule: Q04DX003 (ip), vehicle: saline) is 93 % of control; the T/C (dose: 50.0 mg/kg/injection, schedule: Q04DX003 (ip), vehicle: saline) is 98 % of control.

In the case of `CCOC(=O)CNC(=O)C(O)C(O)C(O)C(O)CO` (configuration not stated), the T/C runs as follows: (dose: 100.0 mg/kg/injection, schedule: Q04DX003 (ip), vehicle: saline) 102 % of control; (dose: 200.0 mg/kg/injection, schedule: Q04DX003 (ip), vehicle: saline) 97 % of control; (dose: 400.0 mg/kg/injection, schedule: Q04DX003 (ip), vehicle: saline) 91 % of control.

Regarding `COC(=O)C1C(C)(C(=O)OC)N=NC1(c1ccccc1)c1ccccc1` (configuration not stated), the T/C is 101 % of control (dose: 100.0 mg/kg/injection, schedule: Q01DX001 (ip), vehicle: steriod suspending solution); 104 % of control (dose: 200.0 mg/kg/injection, schedule: Q01DX001 (ip), vehicle: steriod suspending solution); 98 % of control (dose: 400.0 mg/kg/injection, schedule: Q01DX001 (ip), vehicle: steriod suspending solution).

With `NC(CCl)=NCC1C2CC3CC(C2)CC1C3` (configuration not stated), the T/C is 101 % of control under setting [1]; 121 % of control (dose: 10.0 mg/kg/injection, schedule: Q04DX002 (ip), vehicle: saline); 116 % of control (dose: 20.0 mg/kg/injection, schedule: Q01DX009 (ip), vehicle: saline); 110 % of control (dose: 20.0 mg/kg/injection, schedule: Q04DX002 (ip), vehicle: saline); 110 % of control (dose: 40.0 mg/kg/injection, schedule: Q04DX002 (ip), vehicle: saline).

For `COc1ccc(C(=O)CN2C=C(C(=O)c3cc4ccccc4n3S(=O)(=O)c3ccccc3)CCC2)cc1`, the T/C is 94 % of control (dose: 100.0 mg/kg/injection, schedule: Q04DX002 (ip), vehicle: saline with Tween-80); 87 % of control (dose: 200.0 mg/kg/injection, schedule: Q04DX002 (ip), vehicle: saline with Tween-80); 87 % of control (dose: 400.0 mg/kg/injection, schedule: Q04DX002 (ip), vehicle: saline with Tween-80).

As to `CC1(C)C2CC3C=CCCC3(C2)C1Br` (configuration not stated), the T/C runs as follows: under setting [5], 103 % of control; under setting [6], 92 % of control; under setting [7], 100 % of control.

As to `C(=C\c1ccc(-n2nc3ccc4ccccc4c3n2)cc1)/c1ccccc1`, the T/C is 97 % of control (dose: 50.0 mg/kg/injection, schedule: Q01DX009 (ip), vehicle: saline with Tween-80); 102 % of control (dose: 100.0 mg/kg/injection, schedule: Q01DX009 (ip), vehicle: saline with Tween-80); 102 % of control (dose: 200.0 mg/kg/injection, schedule: Q01DX009 (ip), vehicle: saline with Tween-80).

With `O=C(O)c1cccc2c1C(=O)c1ccccc1-2`, the T/C was 93 % of control under setting [5], 106 % of control under setting [6] and 101 % of control under setting [7].

As to `O=C(N/N=C\c1ccc(Cl)c(Cl)c1)N/N=C/c1ccc(Cl)c(Cl)c1`, the T/C by setting is: (dose: 50.0 mg/kg/injection, schedule: Q04DX003 (ip), vehicle: Klucel (hydroxypropylcellulose) (HPC)) 92 % of control; (dose: 100.0 mg/kg/injection, schedule: Q04DX003 (ip), vehicle: Klucel (hydroxypropylcellulose) (HPC)) 87 % of control; (dose: 200.0 mg/kg/injection, schedule: Q04DX003 (ip), vehicle: Klucel (hydroxypropylcellulose) (HPC)) 92 % of control.

For the molecule `O=C(O)COCc1ccccc1`, the T/C is, setting by setting: (dose: 100.0 mg/kg/injection, schedule: Q04DX003 (ip), vehicle: saline sonified) 97 % of control; (dose: 200.0 mg/kg/injection, schedule: Q04DX003 (ip), vehicle: saline sonified) 92 % of control; (dose: 400.0 mg/kg/injection, schedule: Q04DX003 (ip), vehicle: saline sonified) 92 % of control.

Regarding `O=C(Nc1ccc(C2=NCCN2)cc1)c1ccc(F)c(C(=O)Nc2ccc(C3=NCCN3)cc2)c1`, the T/C (dose: 2.25 mg/kg/injection, schedule: Q01DX Z (ip), vehicle: water) is 105 % of control; the T/C (dose: 4.5 mg/kg/injection, schedule: Q01DX Z (ip), vehicle: water) was 107 % of control; the T/C (dose: 9.0 mg/kg/injection, schedule: Q01DX Z (ip), vehicle: water) is 116 % of control; the T/C (dose: 37.5 mg/kg/injection, schedule: Q01DX Z (ip), vehicle: water) is 154 % of control; the T/C (dose: 75.0 mg/kg/injection, schedule: Q01DX Z (ip), vehicle: water) is 189 % of control; the T/C (dose: 150.0 mg/kg/injection, schedule: Q01DX Z (ip), vehicle: water) was 241 % of control. Further, for the setting “dose: 300.0 mg/kg/injection, schedule: Q01DX Z (ip), vehicle: water”, the T/C was 229 % of control.
